Reference: US20050131028A1, “Methods and compositions for the extended duration treatment of pain, inflammation and inflammation-related disorders” (Pharmacia Corporation, priority 2003, published 2005)
Where “and” joins values, the source holds several entries; their conditions need not be identical. Equal values may be shown once. Read-outs that look alike come from different tables or passages of the source.

Assays:
[1] = cited from earlier work
[2] = Rat pharmacokinetics, single oral dose, non-cassette; format: in vivo; settings: for half-life: rat
Experimental: All rat pharmacokinetics data is non-cassette dosed. Non-cassette dosed pharmacokinetics means that each compound was dosed individually (i.e. not part of a cassette of compounds). Cassette-dosing is a technique in which 2 or more compounds are simultaneously administered to an animal and the pharmacokinetics of each compound is monitored individually even though it is in the same animal/blood sample.
At each sample collection time, blood samples were collected from three rats by cardiac puncture and then processed into plasma. […] Plasma drug concentrations were then determined by liquid chromatography-mass spectrometry methods. The mean plasma concentrations from each of the three samples collected at each time point were then plotted as a function of time. This process was repeated for each compound tested.

[3] = Canine pharmacokinetics, compounds dosed individually; format: in vivo, canines (beagles); settings: beagle, dog, plasma, oral 2 or 4 mg/kg, read-out: Canine t1/2 (converted)
Experimental: In this example, each compound was administered individually to canines (not cassette dosed). […] Plasma drug concentrations were then determined by liquid chromatography-mass spectrometry methods. This process was repeated for each compound tested.

hCOX-1 = hCOX-1 (Homo sapiens, UniProt P23219); experiment: hCOX-1 enzyme inhibition (IC50); format: biochemical; settings: repeated experimental results listed separately
Experimental: (§1) The specificity of a given extended duration Cox-2 inhibitor is measured by determining the IC50 or EC50 for each compound described above.

hCOX-2 = target: T1, hCOX-2 (Homo sapiens, UniProt P35354); experiment: hCOX-2 enzyme inhibition (IC50) and selectivity; format: biochemical; settings: for hCOX selectivity hCOX-1/hCOX-2: Cox-1 IC50/Cox-2 IC50; for IC50: repeated experimental results listed separately
T1 sequence (P35354 18-604): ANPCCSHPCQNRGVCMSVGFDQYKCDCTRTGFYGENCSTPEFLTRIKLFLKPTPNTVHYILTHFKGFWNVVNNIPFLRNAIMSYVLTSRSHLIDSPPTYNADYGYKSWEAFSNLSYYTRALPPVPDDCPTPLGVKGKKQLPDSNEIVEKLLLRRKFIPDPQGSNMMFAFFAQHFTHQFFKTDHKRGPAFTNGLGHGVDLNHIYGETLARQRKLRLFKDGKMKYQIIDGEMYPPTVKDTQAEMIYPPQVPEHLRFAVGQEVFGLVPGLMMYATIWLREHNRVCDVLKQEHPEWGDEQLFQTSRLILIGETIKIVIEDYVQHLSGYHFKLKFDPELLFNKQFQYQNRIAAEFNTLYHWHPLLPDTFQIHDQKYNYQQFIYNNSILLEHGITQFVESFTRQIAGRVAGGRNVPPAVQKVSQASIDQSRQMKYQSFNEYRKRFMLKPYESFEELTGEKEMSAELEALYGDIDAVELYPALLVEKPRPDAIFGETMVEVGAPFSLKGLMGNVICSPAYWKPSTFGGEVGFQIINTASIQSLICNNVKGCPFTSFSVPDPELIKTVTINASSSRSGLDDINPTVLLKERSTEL
Experimental: as §1

[4] = Canine cassette-dosed pharmacokinetics; format: in vivo, canines (beagles); settings: for half-life: beagle, dog, plasma, 2 mg/kg; for increase in plasma half-life in canines: versus 4-methylphenyl compound
Experimental: Cassette-dosing is a technique in which 2 or more compounds are simultaneously administered to an animal and the pharmacokinetics of each compound is monitored individually even though it is in the same animal/blood sample.
Cassette-dosing refers to the practice of dosing 2 or more compounds simultaneously to animals. […] Blood samples were collected over time intervals ranging from 0 to 50 days into EDTA tubes and plasma harvested. Plasma drug concentrations were then determined for each compound in the cassette by liquid chromatography-mass spectrometry methods. This process was repeated for each group of compounds (cassette) tested.

[5] = system: adjuvant-induced arthritis in male Lewis rats; experiment: Adjuvant-induced arthritis in rat paws (paw volume); format: in vivo; settings: single oral dose, 3 mg/kg (FIG. 2) / 3 mg/mL, followed 28 days
Experimental: This experiment was performed following a modified method of Connor, J. et al. (European J. Pharmacology, 1995, 273:15-24). Briefly, arthritis was induced in pathogen-free, male Lewis rats by an intadermal injection of 20 mg/ml Mycobacterium butyricum suspended in squalene in three sites at the base of the tail. The injection of mycobacteria produces a systemic autoimmune response and subsequent chronic inflammation of the joints with many similarities to rheumatoid arthritis. The induced arthritis was allowed to develop for 14 days at which time animals were given a single oral dose of a Cox-2 selective inhibitor at […]. Effectiveness was assessed by the decrease in rat paw edema (paw volume) for 28 days following the Cox-2 inhibitor dose. Paw volume was determined using a water displacement plethysmometer. To gage the drug response, the paw volumes of rats treated with Cox-2 selective inhibitors were compared to normal healthy rats without induced arthritis and without drug (normal-control group) and rats with induced arthritis but without drug (adjuvant-control group).
All of the compounds tested in this model were effective for a minimum of 5 days.

[6] = po, oral 2 mg/kg each compound, cassette, read-out: Canine Cassette-dosed t1/2 (converted)
[7] = plasma, po, 2 mg/kg, plasma, oral 2 mg/kg, non-cassette dosed, read-out: Rat t1/2 (converted)

Chain of hCOX-1 (P23219 24-599): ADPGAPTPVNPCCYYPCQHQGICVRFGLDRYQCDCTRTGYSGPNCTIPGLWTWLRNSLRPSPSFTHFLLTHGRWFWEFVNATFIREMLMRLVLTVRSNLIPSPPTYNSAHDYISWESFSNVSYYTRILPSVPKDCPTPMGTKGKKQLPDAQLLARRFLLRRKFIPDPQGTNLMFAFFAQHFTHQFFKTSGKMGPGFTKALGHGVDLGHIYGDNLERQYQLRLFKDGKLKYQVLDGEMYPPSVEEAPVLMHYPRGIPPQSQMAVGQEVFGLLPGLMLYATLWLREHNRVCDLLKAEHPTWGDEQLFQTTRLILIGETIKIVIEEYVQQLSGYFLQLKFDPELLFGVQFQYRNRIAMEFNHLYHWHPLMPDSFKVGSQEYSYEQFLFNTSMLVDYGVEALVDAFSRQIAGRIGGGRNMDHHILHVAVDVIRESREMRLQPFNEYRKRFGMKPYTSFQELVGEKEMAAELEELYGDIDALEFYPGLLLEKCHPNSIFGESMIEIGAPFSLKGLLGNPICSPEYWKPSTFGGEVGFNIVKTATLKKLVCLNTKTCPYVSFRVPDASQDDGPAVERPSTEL

Structure (SMILES)	half-life [3]	IC50 (hCOX-1)	IC50 (hCOX-2)	half-life [4, 6]	half-life [2, 7]	also measured
Cc1ccc(-c2cc(C(F)(F)F)nn2-c2ccc(S(N)(=O)=O)cc2)cc1 [4-[5-(4-methylphenyl)-3-(trifluoromethyl)-1H-pyrazol-1-yl]benzenesulfonamide]						Canine t1/2 ([1]; comparison data for the 4-methylphenyl compound): 1.72 to 5.18 h; effective half-life in canines ([1]; fast metabolizing subtype (so in the source)): 5.72 h; effective half-life in canines ([1]; slow metabolizing subtype (so in the source)): 1.72 h; half-life ([2]; female, in vivo, female rats, non-cassette dosed, comparison data, read-out: Rat t1/2 in Female (converted)): 14 h; half-life ([2]; male, in vivo, male rats, non-cassette dosed, comparison data, read-out: Rat t1/2 in Male (converted)): 3.73 h
COc1cc(-c2cc(C(F)(F)F)nn2-c2ccc(S(N)(=O)=O)cc2)ccc1Br [4-[5-(4-bromo-3-methoxyphenyl)-3-(trifluoromethyl)-1H-pyrazol-1-yl]benzenesulfonamide]	71 h	30300 nM and 35300 nM	45.3 nM and < 137 nM			hCOX selectivity hCOX-1/hCOX-2 (hCOX-2): 669
Cc1ccc(-c2cc(C(F)(F)F)nn2-c2ccc(S(N)(=O)=O)cc2)cc1Cl [4-[5-(3-chloro-4-methylphenyl)-3-(trifluoromethyl)-1H-pyrazol-1-yl]benzenesulfonamide]		57000 nM and 12500 nM and 14300 nM	24.9 nM and < 137 nM and 7 nM	17 h	5.1 h	hCOX selectivity hCOX-1/hCOX-2 (hCOX-2): 2289
Cc1cc(-c2cc(C(F)(F)F)nn2-c2ccc(S(N)(=O)=O)cc2)ccc1Cl [4-[5-(4-chloro-3-methylphenyl)-3-(trifluoromethyl)-1H-pyrazol-1-yl]benzenesulfonamide]	12 h	4920 nM	< 137 nM	~44 h		
COc1ccc(-c2cc(C(F)(F)F)nn2-c2ccc(S(N)(=O)=O)cc2)cc1C [4-[5-(4-methoxy-3-methylphenyl)-3-(trifluoromethyl)-1H-pyrazol-1-yl]benzenesulfonamide]				~36 h		
COc1c(Cl)cc(-c2cc(C(F)(F)F)nn2-c2ccc(S(N)(=O)=O)cc2)cc1Cl [4-[5-(3,5-dichloro-4-methoxyphenyl)-3-(trifluoromethyl)-1H-pyrazol-1-yl]benzenesulfonamide]			54.7 nM and 39 nM	~17 h		
COc1ccc(-c2cc(C(F)(F)F)nn2-c2ccc(S(N)(=O)=O)cc2)cc1 [4-[5-(4-methoxyphenyl)-3-(trifluoromethyl)-1H-pyrazol-1-yl]benzenesulfonamide]				~21 h		
NS(=O)(=O)c1ccc(-n2nc(C(F)(F)F)cc2-c2ccc(Cl)cc2Cl)cc1 [4-[5-(2,4-[dichlorophenyl)-3-(trifluoromethyl)-1H-pyrazol-1-yl]benzenesulfonamide]	466 h			~771 h	97 h	
NS(=O)(=O)c1ccc(-n2nc(C(F)(F)F)cc2-c2ccc(Cl)cc2)cc1 [4-[5-(4-chlorophenyl)-3-(trifluoromethyl)-1H-pyrazol-1-yl]benzenesulfonamide]				~1190 h	193 h	half-life ([4]; oral, cassette-dosed, single dosage, read-out: canine half-life (converted)): ~1180 h; canine half-life ([4]; cassette-dosed, single dosage): ≤ 1180 h; increase in plasma half-life in canines ([4]; fast metabolizing subtype): 207 fold; increase in plasma half-life in canines ([4]; slow metabolizing subtype): 691 fold; duration of therapeutically effective blood concentration ([4]; without increased or additional dosing): at least 24 hours; half-life ([2]; plasma, oral, 2 mg/kg, single dosage administration, read-out: Rat half-life (converted)): 192 h; Rat half-life ([2]; single dosage administration): ≤ 190 h
COc1ccc(-c2cc(C(F)(F)F)nn2-c2ccc(S(N)(=O)=O)cc2)cc1Cl [4-[5-(3-chloro-4-methoxyphenyl)-3-(trifluoromethyl)-1H-pyrazol-1-yl]benzenesulfonamide]				~22 h		
NS(=O)(=O)c1ccc(-n2nc(C(F)(F)F)cc2-c2ccc(F)cc2)cc1 [4-[5-(4-fluorophenyl)-3-(trifluoromethyl)-1H-pyrazol-1-yl]benzenesulfonamide]	289 h			572 h	32 h	
COc1c(C)cc(-c2cc(C(F)(F)F)nn2-c2ccc(S(N)(=O)=O)cc2)cc1C [4-[5-(4-methoxy-3,5-dimethylphenyl)-3-(trifluoromethyl)-1H-pyrazol-1-yl]benzenesulfonamide]		> 100000 nM	80 nM	~18 h		
NS(=O)(=O)c1ccc(-n2nc(C(F)(F)F)cc2-c2ccc(F)cc2F)cc1 [4-[5-(2,4-[difluorophenyl)-3-(trifluoromethyl)-1H-pyrazol-1-yl]benzenesulfonamide]	233 h	38400 nM and 14000 nM and 22400 nM	149 nM and 36 nM and < 137 nM	~716 h	25 h	hCOX selectivity hCOX-1/hCOX-2 (hCOX-2): 393
NS(=O)(=O)c1ccc(-n2nc(C(F)(F)F)cc2-c2ccc(F)c(F)c2)cc1 [4-[5-(3,4-difluorophenyl)-3-(trifluoromethyl)-1H-pyrazol-1-yl]benzenesulfonamide]	500 h			~881 h	59 h	
NS(=O)(=O)c1ccc(-n2nc(C(F)(F)F)cc2-c2ccc(Cl)c(Cl)c2)cc1 [4-[5-(3,4-dichlorophenyl)-3-(trifluoromethyl)-1H-pyrazol-1-yl]benzenesulfonamide]	762 h			~830 h	157 h	effectiveness in minimizing rat paw volume over longer time periods [5]: effective extended duration compounds
